Test results as given in PMC9558053, “Development of a novel high-throughput screen for the identification of new inhibitors of protein S-acylation” (The Journal of Biological Chemistry, 2022).

Test system: endogenous SNAP23 S-acylation in HEK293T cells
Test: mPEG-click S-acylation of endogenous SNAP23 in HEK293T cells
Format: cell-based, human
Settings: 25 and 50 μM, 4 h pretreatment + 4 h labeling
Description: Finally, we tested whether TTZ-1 and TTZ-2 were able to block the S-acylation of endogenous proteins in the absence of zDHHC enzyme overexpression. In order to detect the S-acylation of endogenous proteins, we used mPEG-click, a technique that we developed recently ([49]) that is better suited for the click chemistry–based analysis of S-acylation of endogenously expressed proteins. In this assay, cells are labeled with either palmitate (C16:0), or C16:0-azide, lysed, and then subjected to click chemistry with alkyne-mPEG 5K. The addition of mPEG 5K moieties to S-acylated proteins increases their apparent molecular weight, which can be detected directly by immunoblotting. HEK293T cells were pretreated for 4 h with either TTZ-1 or TTZ-2 at 25 and 50 μM and then labeled with fatty acids for another 4 h in the presence of the compounds. We first assessed the S-acylation of endogenous SNAP23 as it is a close relative of SNAP25 (SNAP25 is not expressed in the non-neuronal HEK293T cell line) ([50], [51]). […]
Figure 10 Activity of TTZ-1 and TTZ-2 against the S-acylation of endogenous proteins in mammalian cells. […] The data were quantified, and the graphs below each set of membranes show mean ± SEM of normalized S-acylation of either endogenous SNAP23 (A) or endogenous calnexin (B). […]

## O=C(Nc1cccc2c1OC(c1nnn[nH]1)CN2)c1ccc(OCCCCc2ccccc2)cc1 (centres unmarked) [TTZ-2, N-(2-(1H-Tetrazol-5-yl)-3,4-dihydro-2H-benzo[b][1,4]oxazin-8-yl)-4-(4-phenylbutoxy)benzamide]
  S-acylation of endogenous SNAP23: significant reduction

## CCCCCCCOc1ccc(C(=O)Nc2cccc3c2OC(c2nnn[nH]2)CN3)cc1 (centres unmarked) [TTZ-1, N-(2-(1H-Tetrazol-5-yl)-3,4-dihydro-2H-benzo[b][1,4]oxazin-8-yl)-4-(heptyloxy)benzamide]
  S-acylation of endogenous SNAP23: significant reduction
